Measured values: patent publication US5852005A, “Tetracyclic triterpenes” (Novartis AG, priority 1994, dated 1998)
Converted amounts (≈) assume the structure as drawn. Read-outs that look alike come from different tables or passages of the source.

What was measured:
[1] = system: Spleen cells (proliferative response of lymphocytes to allogenic stimulation); assay: Two-way MLR (Murine Mixed Lymphocyte Reaction); format: cell-based, mouse (Balb/c, CBA); settings: Table 5
Description: 1. Proliferative Response Of Lymphocytes to Allogenic Stimulation
Two-way MLR (Murine Mixed Lymphocyte Reaction)
Spleen cells (0.5×106) from Balb/c mice (female, 8-10 weeks) are co-incubated for 5 .sctn.days with 0.5×10^6 spleen cells from CBA mice (female, 8-10 weeks). The allogenic cells induce a proliferative response in the responder spleen cell population which is measured by labelled precursor incorporation into the DNA. Test compounds are added at the start of incubation at varying concentrations and proliferative response compared with untreated controls.
(§1) Fractions are dissolved in ethanol and tested in the Mishell-Dutton assay (primary humoral immune-response to SRBC in vitro, MD) a mixed lymphocyte reaction (MLR) and on the P-815 mastocytoma cell line for cytotoxicity.

Jurkat cells = assay: Cytotoxic and cytostatic activity using transformed human T-cell line (Jurkat); format: cell-based; settings: Table 5
Description: 2. Cytotoxic and cytostatic activity using a transformed human T-cell line (Jurkat)
5×10^4 Jurkat cells are grown in a final volume of 0.2 ml for 72 hours after which the cell numbers are enumerated by use of an enzymatic assay using p-nitrophenyl-N-acetyl-β-D-glucosamindle as substrate. Test compounds are added at varying concentration at the start of culture and cytotoxicity compared with untreated controls.

P-815 mastocytoma cells = assay: Cytotoxic and cytostatic activity in vitro using the P-815 mastocytoma cell line; format: cell-based; settings: Table 5
Description: as §1

[2] = system: DTH reaction (footpad swelling); assay: DTH (delayed-type hypersensitivity) induced by SRBC-TH cells; format: in vivo, mouse (C57 BL/6); settings: Mus musculus, po, 24 h, read-out: TEST 9 (DTH) ED50
Description: 50 μl of the SRBC cell suspension (diluted 1:1 v/v with PBS) is injected s.c. into the left hind footpad (to measure non specific increase in footpad swelling due to the injection procedure). Right and left hind footpad thickness is measured 24 hours later.

[3] = system: systemic lupus erythematosus (disease onset); assay: Systemic lupus erythematosus (SLE) in the mouse (NZB/NZW); format: in vivo, mouse (NZB/NZW F1); settings: po, read-out: TEST 10 (SLE) ED100
Description: 10. Systemic lupus erythematosus (SLE) in the mouse (NZB/NZW)
Female New Zealand black/white (NZB/NZW) F1 mice spontaneously develop characteristics that resemble systemic lupus erythematosus. […] Treatment starts at 24 weeks of age when animals show proteinurea. Compounds are administered p.o. 3 times a week for a total of 12 weeks. Status is determined every second week and animals are sent for histological evaluation at termination of the experiment Ten mice are used per group.

[4] = system: GvH reaction (popliteal lymph node weight); assay: Localised Graft-versus-Host (GvH) Reaction in the rat; format: in vivo; settings: up to about 100× more active than corresponding 17β-epimers
Description: 4. Localised Graft-versus-Host (GvH) Reaction in the rat
Spleen cells (1×10^7) from 6 week old female Wistar/Furth (WE) rats are injected subcutaneously on day 0 into the left hind-paw of female (F344×WF)F1 rats weighing about 100 g. Animals are treated for 4 consecutive days and the popliteal lymph nodes are removed and weighed on day 7. The difference in weight between the two lymph nodes is taken as the parameter for evaluating the reaction. Test compounds are administered daily for 4 days at varying dosage p.o. and inhibition compared with untreated controls. Dammara compounds are active (inhibit GvH reaction) in this test model at doses of the order of from 10 μg to 10 mg/kg/day p.o..

SMILES	IC50 MLR [1] [mg/L]	IC50 Jurkat (Jurkat cells) [mg/L]	IC50 P-815 (P-815 mastocytoma cells) [mg/L]	IC50 ([1]; Mus musculus, Lymphocyte) [mg/L]	ED50 ([2]; one trial run) [mg/kg]	IC50 (Jurkat cells; Homo sapiens, Jurkat) [mg/L]	ED100 ([3]; one trial run) [mg/kg]	activity relative to corresponding 17β-epimers [4]	IC50 (P-815 mastocytoma cells; Mus musculus, P815) [mg/L]	ED50 [2] [mg/kg]	ED100 [3] [mg/kg]
COc1cc([C@@H]2c3cc4c(cc3C[C@H]3COC(=O)[C@@H]32)OCO4)cc(OC)c1OC [Silicicolin, reference compound]	0.002 (≈ 5.02 nM)	0.0025 (≈ 6.27 nM)	0.004 (≈ 10 nM)	–	–	–	–	–	–	–	–
C=C(C/C=C/C(C)(C)O)[C@@H]1CC[C@]2(C)[C@@H]1CC[C@@H]1[C@@]3(C)CC[C@H](O)C(C)(C)[C@@H]3CC[C@]12C [compound of formula IC, (17α)-23-(E)-dammara-20,23-diene-3β,25-diol]	0.011	–	–	0.0105	0.004	> 5	0.01	up to 100 ×	> 5	–	–
C=C(C/C=C/C(C)(C)O)[C@H]1CC[C@]2(C)[C@@H]1CC[C@@H]1[C@@]3(C)CC[C@H](O)C(C)(C)[C@@H]3CC[C@]12C [β-EPIMER OF IC, (17β)-23-(E)-dammara-20,23-dien-3β,25-diol]	–	–	–	–	–	–	–	–	–	10	10
